Patent US20070196514A1, “Prostate cancer treatment with glycogen synthase kinase-3beta inhibitors” (priority 2006, published 2007)

Tested on: LNCaP cells
Test: Affymetrix cDNA microarray for LiCl-induced changes
Format: cell-based, human
Protocol: Genechip® arrays (Affymetrix Inc, Santa Clara, Calif.) used herein contain almost 45,000 probe sets representing more than 39,000 transcripts derived from approximately 33,000 well substantial human genes. The in vitro-transcription labeling is conducted using the EnzoBio array high yield RNA transcript labeling kit (Affymetrix). Ten micrograms of total RNAs were used for the first strand cDNA synthesis using the SuperscriptChoice system (Invitrogen).
Genechips were hybridized for 16 hours at 45° C. and 60 rpm in Genechip hybridization oven Model 640. After washing the Genechip, the signal intensity was detected using the Agilent Gene Array scanner.
This example investigated the genes that are altered by GSK-3β inhibition. This approach started with a genome-wide screening of gene expression with cDNA Microarray to identify the altered genes, which was verified by RT-PCR and Western blot at mRNA and protein levels, respectively. After sequestered in serum-free media for 24 hours, LNCaP cells were left untreated or treated with LiCl in a full culture media for 18 hours. The total cellular RNAs were extracted from the cells for cDNA Microarray analysis.

[1] = LiCl in full culture media 18 hours, down-regulation
[2] = LiCl in full culture media 18 hours, up-regulation

SMILES: [Cl-].[Li+] [LiCl, Lithium chloride]
- fold change, Cyclin A2 (203418_at) [1]: −4.19
- fold change, Cyclin E2 (205034_at) [1]: −2.99
- fold change, Cyclin E2 (211814_s_at) [1]: −2.18
- fold change, cdc6 (203967_at) [1]: −3.47
- fold change, cdc6 (203968_s_at) [1]: −3
- fold change, cdc25c (205167_s_at) [1]: −2.74
- fold change, cdc25c (217010_s_at) [1]: −5.99
- fold change, cyclin B2 (202705_at) [1]: −1.4
- fold change, p27KIP1 (209112_at) [1]: −1.17
- fold change, cyclin D1 (203665_at) [2]: 2.07
- fold change, cyclin D1 (208712_at) [2]: 1.84
- fold change, cyclin G2 (202770_s_at) [2]: 1.87
- fold change, p21CIP1 (202284_s_at) [2]: 5.7
- fold change, p57KIP2 (213348_at) [2]: 1.79
- microarray expression of cyclin D1 (LiCl treatment): slight increase
- microarray expression of other cell cycle related proteins (cyclin B, cdc2, p27KIP1, p57KIP2) (LiCl treatment): No significant changes
- treatment signal, p57KIP2 (213348_at) (LiCl-treated, control signal 137.6): 246.4
- treatment signal, cdc25c (217010_s_at) (LiCl-treated, control signal 207.8): 34.7
- treatment signal, cyclin D1 (203665_at) (LiCl-treated, control signal 294.7): 609.3
- treatment signal, cyclin G2 (202770_s_at) (LiCl-treated, control signal 325.3): 606.9
- treatment signal, p21CIP1 (202284_s_at) (LiCl-treated, control signal 430.9): 2457.2
- treatment signal, cdc25c (205167_s_at) (LiCl-treated, control signal 442.3): 161.2
- treatment signal, Cyclin E2 (211814_s_at) (LiCl-treated, control signal 852.7): 391.2
- treatment signal, cyclin D1 (208712_at) (LiCl-treated, control signal 853.9): 1568.2
- treatment signal, cdc6 (203968_s_at) (LiCl-treated, control signal 1132.5): 377.9
- treatment signal, cdc6 (203967_at) (LiCl-treated, control signal 1136): 327
- treatment signal, Cyclin E2 (205034_at) (LiCl-treated, control signal 1268.1): 423.8
- treatment signal, p27KIP1 (209112_at) (LiCl-treated, control signal 1365.8): 1171.7
- treatment signal, Cyclin A2 (203418_at) (LiCl-treated, control signal 1529.8): 364.7
- treatment signal, cyclin B2 (202705_at) (LiCl-treated, control signal 2379.1): 1693.9
